Data taken from PubChem BioAssay AID2610 (Broad Institute, 2010).
Records with an inconclusive call do not appear. Calls of active or inactive are those of the source.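 How the source made its calls: active means EC50 no more than tenfold above the top concentration tested, with valid fit and all samples agreeing; inconclusive means flat fit at 30 to 70% inhibition, poor fit, or split samples; inactive means EC50 beyond tenfold the top concentration tested.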

The compounds below were run on BJeLR fibroblast viability, Alamar Blue fluorescence, 48 h (assay: BJeLR fibroblast growth inhibition, viability readout – cell-based, alamar blue fluorescence, 48 h, cherrypicked samples, dose response (AID 2610);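 further: BJ fibroblasts with hTERT plus SV40 large and small T and HRAS V12; EC50 for loss of viable cells so potency reflects cytotoxic compounds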).

Structure (SMILES)	EC50
CNC(=S)N/N=C/c1ccc(-c2ccc(C(=O)O)cc2)o1	> 13300 nM (inactive)
Cc1cccc(C)c1NS(=O)(=O)c1ccc(-c2cnc(C3CC3)o2)cc1	< 104 nM
COc1ccccc1N1CCN(C(=O)c2cc(=O)c3cc(C)cc(C)c3o2)CC1	< 104 nM
COc1ccc(N=C2S/C(=C\c3ccc(Cl)c([N+](=O)[O-])c3)C(=O)N2CCN(C)C)cc1	1370 nM
CCCCCN=C(N)N/N=C/c1c[nH]c2ccc(OC)cc12	2980 nM
CN(C)CCNC(=O)c1cc2c(s1)-c1ccc(Cl)cc1SC2	1120 nM
COc1ccc(/C=C2\CN(Cc3ccccc3)C/C(=C\c3ccc(OC)c(O)c3)C2=O)cc1O	559 nM
COc1ccc(/C=N\NC(=O)c2cccc(F)c2)cc1COc1ccccc1	< 104 nM
ClC1=C(Cl)C(Cl)=C(Cl)C1=C/C=C/c1ccccc1	1040 nM
CC1=CC(C)(C)N(S(=O)(=O)c2ccc(C)cc2)c2cc(C)ccc21	386 nM
CN(Cc1cnc2nc(N)nc(N)c2n1)c1ccc(C(=O)N[C@@H](CCC(=O)O)C(=O)O)cc1	> 13300 nM (inactive)
O=C1C(=O)c2ccc(-c3ccccc3)cc2-c2ccccc21	926 nM
COc1cc2c(c(OC)c1OC)-c1ccc(N(C)CC(OC)OC)c(=O)cc1[C@@H](NC(C)=O)CC2	180 nM
N=c1c2c(-c3ccccc3)c(-c3ccccc3)n(Cc3ccco3)c2ncn1CCCn1ccnc1	1270 nM
CCC1=Nc2cc(C(=O)NCc3ccco3)ccc2Sc2ccc(C)cc21	< 104 nM
Cc1cc(C)c2c(CCl)cc(=O)oc2c1	116 nM
CC1C/C(=C/c2ccncc2)C(=O)/C(=C/c2ccncc2)C1 (stereo unspecified)	400 nM
Nc1ccc2c(c1)C(=O)C(=O)c1ccccc1-2	1720 nM
C/C(=N\NC(=O)c1ccccc1F)c1ccccn1	4140 nM
O=Cc1cc2ccccc2nc1SCc1ccc(Cl)c(Cl)c1	< 104 nM
CCN1/C(=C/c2ccc3ccccc3[n+]2CC)C=Cc2ccccc21	726 nM
C(=N\Nc1nncc2ccccc12)/c1ccccn1	3340 nM
CCCCCCCCCCCCn1ccc(=N)cc1	522 nM
Cc1sc2cc3c(c(C(=O)c4ccccc4)[n+]2c1C)-c1cccc2cccc-3c12	10500 nM
Clc1ccccc1Nc1nnc(-c2ccncc2)s1	> 13300 nM (inactive)
Cn1cnc(Sc2ncnc3nc[nH]c23)c1[N+](=O)[O-]	> 13300 nM (inactive)

Structure (SMILES)	EC50
C#CCOc1ccc(C2C3=C(COC3=O)Nc3cc4c(cc32)OCO4)cc1OC (stereo unspecified)	< 104 nM
FC(F)(F)c1nnc2c(Sc3ccc(Cl)cc3)nc3ccccc3n12	531 nM
Cn1ncc2c(O/N=C(\N)c3ccc(C(C)(C)C)cc3)ncnc21	2340 nM
COc1ccc(CCNc2nnc(Sc3nnnn3-c3ccccc3)s2)cc1OC	344 nM
CCCC(=O)Nc1ccc(C(=O)N/N=C/c2ccc([N+](=O)[O-])o2)cc1	< 48.8 nM
Cc1ccccc1Nc1nc(N)nc(CCl)n1	2290 nM
CCN1/C(=C/c2ccc3cc(C)ccc3[n+]2CC)Sc2ccc3sccc3c21	< 104 nM
COc1ccc(C2C(O)C(c3c[nH]c4ccccc34)=NN2C(=O)CCl)cc1 (stereo unspecified)	307 nM
Cc1ccc(N=Cc2c(C)[nH]n(-c3nc4ccccc4[nH]3)c2=O)cc1	> 13300 nM (inactive)
O=C(Nc1nc2ccccc2[nH]1)c1ccccc1F	> 13300 nM (inactive)
S=C(N/N=C/c1ccc2ncccc2c1)Nc1ccccc1	> 13300 nM (inactive)
C/C(=N\NC(=O)c1ccc(F)cc1)c1ccccn1	491 nM
CCOc1ccc(Nc2nc(N)nc(CCl)n2)cc1	391 nM
Cc1ccc(/C=C2\SC(=S)N(CCCC(=O)N3CCOCC3)C2=O)cc1	3580 nM
CCOC(=O)/C(=C\c1cccnc1)C(=O)c1cc(C(C)=O)c(Nc2ccccc2)s1	575 nM
COc1cccc(C(=O)N/N=C(/c2ccccc2)c2ccccn2)c1	821 nM
Oc1ccccc1N=Nc1nc(-c2ccccc2)c(-c2ccccc2)[nH]1	176 nM
O=C(N/N=C(\c1ccccc1)c1cccnc1)c1cccc(F)c1	697 nM
O=C(/C=C/c1ccc(F)cc1)NNC(=O)CCN1CCN(Cc2ccccc2)CC1	> 13300 nM (inactive)
c1ccc(-c2ccc(-c3nc(-c4ccccn4)no3)cc2)cc1	> 13300 nM (inactive)
Nc1nc(CCl)nc(Nc2cccc3ccccc23)n1	493 nM
CC1=CC(=O)C=C(C)C1=NOc1ccccc1[N+](=O)[O-]	670 nM
CC(C)(C)c1nnc(N/N=C/c2cc(Br)ccc2O)n(N)c1=O	1400 nM
COc1ccc(OC)c2c1C(=O)C(Cl)=C(Cl)C2=O	2980 nM
CCn1cc(C(=O)NCc2ccco2)c(=O)c2cc(S(=O)(=O)N3CC(C)CC(C)C3)ccc21 (stereo unspecified)	> 13300 nM (inactive)
